Experimental data taken from publication PMC11619978 (Heliyon, 2024).
Entries after “also recorded” stand apart in the source; their conditions may differ.

Assays:
[1] = biological target: T1, human pancreatic α-amylase (Homo sapiens, UniProt P04746); test: α-amylase inhibition assay; assay type: biochemical
T1 sequence (P04746 16-511): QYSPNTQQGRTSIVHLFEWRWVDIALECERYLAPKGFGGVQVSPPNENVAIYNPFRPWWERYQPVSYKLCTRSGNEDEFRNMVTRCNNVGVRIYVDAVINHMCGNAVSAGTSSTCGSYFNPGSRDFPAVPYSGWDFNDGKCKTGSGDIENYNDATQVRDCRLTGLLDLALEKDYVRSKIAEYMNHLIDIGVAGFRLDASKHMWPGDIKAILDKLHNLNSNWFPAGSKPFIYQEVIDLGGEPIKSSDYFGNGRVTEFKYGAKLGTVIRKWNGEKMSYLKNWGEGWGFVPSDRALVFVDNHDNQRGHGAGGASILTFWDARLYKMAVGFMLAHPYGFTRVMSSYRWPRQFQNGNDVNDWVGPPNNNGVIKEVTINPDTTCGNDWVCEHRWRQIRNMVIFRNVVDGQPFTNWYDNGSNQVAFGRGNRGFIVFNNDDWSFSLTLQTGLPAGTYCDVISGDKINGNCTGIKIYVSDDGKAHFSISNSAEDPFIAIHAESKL

[2] = biological target: human lysosomal acid-α-glucosidase (Homo sapiens, UniProt P10253); test: α-glucosidase inhibition assay; assay type: biochemical
[3] = biological target: T2, α-amylase (Homo sapiens, UniProt P04746); test: enzymatic kinetic study on α-amylase; assay type: biochemical; conditions: for mode of α-amylase inhibition: Lineweaver-Burk plot
T2 sequence (P04746 16-511): T1 sequence (P04746 16-511)

[4] = biological target: α-glucosidase (Homo sapiens, UniProt P10253); test: enzymatic kinetic study on α-glucosidase; assay type: biochemical; conditions: for mode of α-glucosidase inhibition: Lineweaver-Burk plot
[5] = test system: female mice; test: acute oral toxicity; assay type: in vivo; conditions: three female mice

IC50 [1] [µM]	IC50 [2] [µM]	SMILES	also measured
64.2 ± 3.15	158 ± 7.09	CNC(=S)N/N=C/c1cccc(C[C@@H]2C[C@H]3C(=O)N(C)[C@@]4(C[C@H](C)CC[C@H]4C(C)C)N3O2)c1O [5g]	–
–	–	C[C@H]1O[C@H](O[C@H]2[C@H](O)[C@@H](O)[C@@H](O[C@H]3[C@H](O)[C@@H](O)C(O)O[C@@H]3CO)O[C@@H]2CO)[C@H](O)[C@@H](O)[C@@H]1N[C@H]1C=C(CO)[C@@H](O)[C@H](O)[C@H]1O (stereo partly drawn) [Acarbose, reference compound]	mode of α-amylase inhibition [3]: competitive; mode of α-glucosidase inhibition [4]: competitive; also recorded: compete with the substrate for binding to the active site
198 ± 9.5	286 ± 13.5	CC(C)[C@@H]1CC[C@@H](C)C[C@@]12N(C)C(=O)[C@@H]1C[C@@H](Cc3cccc(/C=N/NC(=S)Nc4ccccc4)c3O)ON12 [5b]	–
58.8 ± 2.22	98.6 ± 4.35	CC(C)[C@@H]1CC[C@@H](C)C[C@@]12N(C)C(=O)[C@@H]1C[C@@H](Cc3cccc(/C=N/NC(=S)N(C)C)c3O)ON12 [5d]	–
151 ± 7.4	263 ± 12.2	CC(C)[C@@H]1CC[C@@H](C)C[C@@]12N(C)C(=O)[C@@H]1C[C@@H](Cc3cccc(/C=N/NC(=O)Nc4ccccc4)c3O)ON12 [5a]	–
33.9 ± 1.09	49.3 ± 2.19	CC(C)[C@@H]1CC[C@@H](C)C[C@@]12N(C)C(=O)[C@@H]1C[C@@H](Cc3cccc(/C=N/NC(N)=S)c3O)ON12 [5e]	–
73.1 ± 3.31	203 ± 10	CCNC(=S)N/N=C/c1cccc(C[C@@H]2C[C@H]3C(=O)N(C)[C@@]4(C[C@H](C)CC[C@H]4C(C)C)N3O2)c1O [5c]	–

SMILES	IC50 [1] [µM]	IC50 [2] [µM]	also measured
CC(C)[C@@H]1CC[C@@H](C)C[C@@]12N(C)C(=O)[C@@H]1C[C@@H](Cc3cccc(/C=N/NC(N)=O)c3O)ON12 [5f]	26.7 ± 1.25	39.1 ± 1.83	fold improvement over acarbose, α-amylase ([1]; versus acarbose IC50): about 11 fold; fold improvement over acarbose, α-glucosidase ([2]; versus acarbose IC50): ~20 fold; Ki [3]: 24.9 µM; mode of α-amylase inhibition [3]: competitive inhibition; Ki [4]: 37 µM; mode of α-glucosidase inhibition [4]: competitive; also recorded: compete with the substrate for binding to the active site; survival at 1600 mg/kg b.w. ([5]; 1600 mg/kg b.w.): only one mouse was survived; dose with no toxicity (no significant adverse effects or mortality) [5]: up to 1000 mg/kg b.w.
